The values below come from ChEMBL document CHEMBL2177061, “Factors influencing the specificity of inhibitor binding to the human and malaria parasite dihydroorotate dehydrogenases” (J Med Chem, 2012).

Broadly, the inhibition is the relative decrease from the control value, in per cent. For orientation: pIC50 means −log10 of the IC50, conventionally taken in molar units. High values mean a low IC50, low ones a high IC50.

Test [1] relates to T1, Dihydroorotate dehydrogenase (quinone), mitochondrial (Plasmodium falciparum (isolate 3D7)), Q08210 [F188Y].
T1 sequence (whole entry): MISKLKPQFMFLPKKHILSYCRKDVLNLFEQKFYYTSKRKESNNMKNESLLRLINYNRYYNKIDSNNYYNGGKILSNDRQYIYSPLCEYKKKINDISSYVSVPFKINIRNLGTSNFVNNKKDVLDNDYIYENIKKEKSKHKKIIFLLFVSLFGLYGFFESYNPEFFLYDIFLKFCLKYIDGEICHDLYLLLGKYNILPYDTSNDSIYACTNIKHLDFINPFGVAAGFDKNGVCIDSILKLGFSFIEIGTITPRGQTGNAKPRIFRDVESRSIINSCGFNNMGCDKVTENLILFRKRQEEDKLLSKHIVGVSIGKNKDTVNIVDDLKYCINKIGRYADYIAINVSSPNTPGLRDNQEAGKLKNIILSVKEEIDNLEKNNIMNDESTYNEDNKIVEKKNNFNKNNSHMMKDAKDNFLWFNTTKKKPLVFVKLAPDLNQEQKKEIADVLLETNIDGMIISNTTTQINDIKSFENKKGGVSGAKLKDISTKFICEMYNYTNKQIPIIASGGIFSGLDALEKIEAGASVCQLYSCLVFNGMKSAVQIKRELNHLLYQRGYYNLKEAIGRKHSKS
The test can be described thus: Inhibition of Plasmodium falciparum […] dehydrogenase F188Y mutant expressed in Escherichia coli BL21(DE3) using […] as substrate at 100 uM by DCIP-based colorimetric analysis.

The test system of test [2] is T2, Dihydroorotate dehydrogenase (quinone), mitochondrial (Plasmodium falciparum (isolate 3D7)), Q08210 [C276Y].
T2 sequence (whole entry): T1 sequence (whole entry) with Y188F, C276Y
Briefly: Inhibition of Plasmodium falciparum […] dehydrogenase C276Y mutant expressed in Escherichia coli BL21(DE3) using […] as substrate at 100 uM by DCIP-based colorimetric analysis.

Test [3] has as its system T3, Dihydroorotate dehydrogenase (quinone), mitochondrial (Plasmodium falciparum (isolate 3D7)), Q08210 [H185A].
T3 sequence (whole entry): T1 sequence (whole entry) with H185A, Y188F
Briefly: Inhibition of Plasmodium falciparum […] dehydrogenase H185A mutant expressed in Escherichia coli BL21(DE3) using […] as substrate at 100 uM by DCIP-based colorimetric analysis.

The species named for test [4] is Homo sapiens. Briefly: Ratio of IC50 for human […] dehydrogenase H56A mutant to IC50 for human wild type […] dehydrogenase.
For test [5], the species on record is Homo sapiens. Briefly: Ratio of IC50 for human dihydrofolate dehydrogenase Y147A mutant to IC50 for human wild type dihydrofolate dehydrogenase.
Test [6] addresses Dihydroorotate dehydrogenase (quinone), mitochondrial (Homo sapiens, UniProt Q02127). The test can be described thus: Inhibition of human […] dehydrogenase expressed in Escherichia coli BL21(DE3) using […] as substrate by DCIP-based colorimetric analysis.
Test [7] addresses T4, Dihydroorotate dehydrogenase (Plasmodium falciparum, UniProt Q54A96).
T4 sequence (Q54A96 whole entry): T1 sequence (whole entry) with Y188F
Briefly: Inhibition of Plasmodium falciparum […] dehydrogenase expressed in Escherichia coli BL21(DE3) using […] as substrate by DCIP-based colorimetric analysis.

Numbering of substitutions follows the chain as printed. pIC50: −log10 of the molar value.

Dihydroorotate dehydrogenase (quinone), mitochondrial, sequence (Q02127 whole entry): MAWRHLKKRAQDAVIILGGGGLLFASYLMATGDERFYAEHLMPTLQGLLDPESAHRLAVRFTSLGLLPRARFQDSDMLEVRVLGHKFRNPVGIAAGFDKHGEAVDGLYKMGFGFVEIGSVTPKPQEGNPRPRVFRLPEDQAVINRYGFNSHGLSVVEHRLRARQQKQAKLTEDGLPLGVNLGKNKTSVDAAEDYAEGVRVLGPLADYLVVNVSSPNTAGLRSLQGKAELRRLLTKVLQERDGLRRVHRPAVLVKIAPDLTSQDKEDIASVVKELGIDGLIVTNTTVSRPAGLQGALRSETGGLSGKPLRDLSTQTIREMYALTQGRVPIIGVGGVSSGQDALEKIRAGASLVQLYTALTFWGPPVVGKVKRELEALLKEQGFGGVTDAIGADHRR

With `CCc1cc(O)n2nc(SCc3cc(Cl)ccc3Cl)nc2n1`, the inhibition in test [1], in test [2] and in test [3] was below 50% in each case. Besides, the values for the Ratio IC50 in the test listed under Homo sapiens [4] and in the test listed under Homo sapiens [5] were 17 and 16, respectively. For the same molecule, the pIC50 in test [6] is 7.89; in test [7] it was below 4.00.
